Test results published in publication PMC7614227, “Structural Basis of Mammalian Respiratory Complex I Inhibition by Medicinal Biguanides” (Science (New York, N.Y.), 2023).

What was measured:
[1] = target: T1, complex I catalysis in bovine heart mitochondrial membranes (Bos taurus, UniProt P03887+P03898+P17694+P42026); assay: NADH:O2 oxidoreduction by bovine heart mitochondrial membranes; assay type: biochemical
T1 construct: Fresh cow hearts were purchased from an abattoir; tissue C; Humphreys and Sons, Chelmsford, U.K. (abattoir); host or cells: bovine heart mitochondrial membranes

[2] = target: T2, detergent-solubilized, purified bovine complex I (Bos taurus, UniProt P03887+P03898+P17694+P42026); assay: NADH:decylubiquinone (NADH:DQ) oxidoreduction by purified complex I; assay type: biochemical
T2 construct: from tissue; host or cells: bovine heart mitochondrial membranes, solubilized in DDM, Q-Sepharose and Superose 6 chromatography
Description: (§1) and filtered (0.2 µM). The complexes were then separated by ion-exchange chromatography (Q-
(§2) Sepharose, GE Healthcare, as described previously (62)) and complex I-containing fractions
(§3) pooled and concentrated using a 50 kDa MWCO spin column (Merck Millipore). The samples
(§4) were clarified using a Spin-X 0.22 µm centrifugal filter (Corning) then applied to a Superose 6
(§5) Increase 5/150 (inhibitor-free dataset) or 10/300 column (biguanide-inhibited dataset) (GE
(§6) Healthcare) and eluted in 20 mM Tris-HCl (pH 7.14 at 20 ° C), 150 mM NaCl and 0.05% DDM.
(§7) Complex I elutes as a monodisperse peak at ~ 1.6 or 13 mL from the superose 6 increase 5/150 or
(§8) 10/300 columns, respectively (Fig. S3). The peak fractions for the biguanide-inhibited dataset were
(§9) concentrated using a 50 kDa MWCO spin column (Merck Millipore) and the protein concentration
(§10) quantified using a nanodrop UV-vis spectrophotometer (e280 = 0.2 mg-1 mL); IM1092 was then […]
(§11) µg of purified complex I was reduced with 10 mM dithiothreitol and analyzed on a Novex Tris- […]
(§12) NADH:O2 oxidoreduction by membranes was measured at 10 µg-protein mL-1 using 200 μM […]
(§13) assays. NADH:decylubiquinone (NADH:DQ) oxidoreduction by complex I was measured at 0.5 […]
(§14) measured by linear regression of the maximal slope and quantified by the absorbance of NADH at […]
(§15) was determined to evaluate the active/deactive ratio by incubating the membranes (2 mg-protein […]

HEPG2 C3A cells = assay: Cellular oxygen consumption (Seahorse XFe96, rotenone-sensitive OCR); assay type: cell-based
Description: from the weighed sample (1.15 mg) and solvent (0.78956g) masses of 4.31 mM, implying a purity of 93%. The proton NMR spectrum is consistent with the presented chemical structure and with the described shifts for this compound (27). The shifts observed here were ¹H NMR (DMSO, 400 […]
Cellular oxygen consumption measurements
HEPG2 C3A (ATCC CRL10741) cells were a kind gift from AstraZeneca and were authenticated by STR profiling (Eurofins). Cells were grown in Dulbecco's modified Eagle's medium (DMEM, Thermo Fisher Scientific) containing 10 mM glucose supplemented with 10% fetal bovine serum (Thermo Fisher Scientific) at 37 °C in 5% CO2. Per well, 2×10^4 cells were plated into an XFe96 (Agilent) cell plate and incubated for 24 h at 37 °C in 5% CO2. […] OCRs (oxygen consumption rates) were measured in a XFe96 Seahorse extracellular flux analyzer; 2 μM rotenone was used to inhibit complex I at the end of the assay. To calculate the normalized rotenone-sensitive OCR rates, the rotenone-insensitive rates (determined at the end of the experiment) were subtracted, and the traces normalized to 100% at the measurement before IM1092 addition. […] IC50 values were calculated using the normalized rates, following 6 hours of incubation […]

[3] = tested on: T3, complex I in bovine heart mitochondrial membranes; assay: NEM sensitivity of NADH:O2 activity (active/deactive ratio); assay type: biochemical; conditions: as-prepared membranes incubated with 200 μM IM1092 and NEM at 4 °C
T3 construct: Fresh cow hearts were purchased from an abattoir; tissue C; Humphreys and Sons, Chelmsford, U.K. (abattoir); host or cells: bovine heart mitochondrial membranes
Description: as §1, §2, §3, §4, §5, §6, §7, §8, §9, §10, §11, §12, §13, §14, §15

[4] = tested on: mitochondrial glycerophosphate dehydrogenase (mGPD); conditions: cited from earlier work
[5] = Fig. 1B, membranes of differing deactive complex I content, 1st labelled value (deactive content not given)
[6] = Fig. 1B, membranes of differing deactive complex I content, 2nd labelled value (deactive content not given)
[7] = Fig. 1B, membranes of differing deactive complex I content, 3rd labelled value (deactive content not given)
[8] = Fig. 1C, pH 9D(i): pH 9 deactivated membranes with antimycin A and AOX
[9] = Fig. 1C, pH 9D: pH 9 deactivated membranes

Structure (SMILES) | IC50 [1, 5] [µM] | IC50 [1, 6] [µM] | IC50 [1, 7] [µM] | IC50 ([1]; Fig. 1C, pH 6) [µM] | IC50 ([1]; Fig. 1C, pH 7) [µM] | IC50 ([1]; Fig. 1C, pH 8) [µM] | IC50 ([1]; Fig. 1C, pH 9) [µM] | IC50 [1, 8] [µM] | IC50 [1, 9] [µM] | IC50 ([2]; catalysis of detergent-solubilized, purified bovine complex I (NADH:DQ)) [µM] | control catalytic rate recovered after dilution into inhibitor-free assay buffer ([2]; complex I incubated with 350 μM IM1092 as for cryo-EM grids, then diluted, reversibility) [%] | effect on cellular oxygen consumption (HEPG2 C3A cells) | deactive content of membranes [3] | inhibition of human mGPD [4]
N=C(N=C(N)N)NCCc1ccc(I)c(Cl)c1 [IM1092] | 32 | 20 | 4 | 43 | 27 | 21 | 4 | 0.816 | 0.846 | 86 | 98 | inhibits cellular oxygen consumption | essentially the same deactive content as biguanide-free controls | 
CN(C)C(=N)N=C(N)N [Metformin, metformin, reference compound] | 99000 | 52000 | 33000 |  |  | 38000 | 9000 | 8000 | 15000 |  |  |  |  | not to inhibit
